Data from PMC11241255 (International Journal of Molecular Sciences, 2024).
Where “and” joins values, the source holds several entries; their conditions need not be identical. Equal entries are not always repeated. Where two headings read alike, the source gives them in different places.

How the values were obtained:
[1] = target: T1, Acetylcholinesterase (Electrophorus electricus, Type VI-S) (Electrophorus electricus, UniProt O42275); assay: biochemical; conditions: for Type of Inhibition of AChE: Lineweaver–Burk plot, 100 and 200 μg/mL; for Vmax of AChE in presence of inhibitor: no inhibitor 2.975; for IC50: read-out: AChE IC50 (converted)
T1 construct: purchased Sigma-Aldrich
T1 sequence (O42275 24-633): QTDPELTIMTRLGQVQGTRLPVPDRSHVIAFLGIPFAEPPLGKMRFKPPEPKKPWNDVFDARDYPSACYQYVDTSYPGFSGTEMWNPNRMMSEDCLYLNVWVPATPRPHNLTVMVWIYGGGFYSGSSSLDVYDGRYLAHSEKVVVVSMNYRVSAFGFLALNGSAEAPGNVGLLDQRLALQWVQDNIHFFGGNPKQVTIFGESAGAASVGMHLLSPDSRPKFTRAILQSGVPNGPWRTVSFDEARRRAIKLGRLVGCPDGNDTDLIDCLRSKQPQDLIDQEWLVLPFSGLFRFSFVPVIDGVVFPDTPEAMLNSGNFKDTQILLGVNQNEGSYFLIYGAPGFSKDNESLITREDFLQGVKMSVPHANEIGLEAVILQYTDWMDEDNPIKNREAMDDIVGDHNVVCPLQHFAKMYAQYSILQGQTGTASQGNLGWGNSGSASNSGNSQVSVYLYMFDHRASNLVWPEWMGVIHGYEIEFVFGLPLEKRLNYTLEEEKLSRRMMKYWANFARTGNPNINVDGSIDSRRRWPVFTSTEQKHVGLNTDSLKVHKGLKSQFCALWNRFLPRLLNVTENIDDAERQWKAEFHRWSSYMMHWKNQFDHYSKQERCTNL
Procedure: The AChE activity was examined by slight modifications [23] in Ellman’s method [76]. The extracts and phytocompounds were incubated for 15 min with AChE and 10 mM ATCC at 37 °C. The reaction was stopped by DTNB (15 mM), and the absorbance was measured at 412 nm (Multi-mode plate reader, Synergy-H1 BioTek, Agilent, USA). […] The percent inhibition was calculated as:Percent Inhibition (I%) = [(Ao − Ac) − (Bi − Bc)]/(Ao − Ac) × 100 where Ao is the absorbance without inhibitor; Ac is the negative control without inhibitor; Bi is the absorbance with inhibitor; and Bc is the negative control with inhibitor. The IC50 values were calculated using GraphPad Prism 10. Lineweaver–Burk plot was used to prepare the inhibition curves (with and without extract/phytocompound) using GraphPad Prism 10. The kinetic parameters were calculated from a non-linear fit (Michaelis–Menten equation) in GraphPad Prism 10.
Statistical analysis was established by a one-way ANOVA followed by Dunnett’s post hoc test. Data are registered as the mean ± SEM of three sets of experiments. […] The IC50 values were determined using non-linear regression. The Vmax and Km were calculated from a Michaelis–Menten plot drawn using a non-linear plot (GraphPad Prism 10). Lineweaver–Burk plots were drawn using linear regression analysis (GraphPad Prism 10). The Ki values were calculated from the formula IC50 = Ki (1 + [S]/Km).

Aβ1–42 [2] = target: T2, Aβ1–42 (Homo sapiens, UniProt P05067); assay: Anti-Aβ1–42 oligomerization, multimeric detection system (MDS); assay type: biochemical; conditions: vs negative control (Buffer + Aβ)
T2 construct: Aβ1–42 for MDS (GenicBio Inc., Shanghai, China); purchased GenicBio Inc
T2 sequence (P05067 672-713): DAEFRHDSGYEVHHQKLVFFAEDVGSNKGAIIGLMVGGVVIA
Procedure: The anti-Aβ1–42 oligomerization and fibrilization activity of the extracts/bioactives were measured by Multiple Detection System (MDS) and ThT assay, respectively. Briefly, the extracts and phytocompounds were incubated with Aβ1–42 at RT for different time points (0 h, 2 h, and 4 h). The samples were incubated on an anti-β-amyloid pre-coated plate for 1 h at RT. An HRP-conjugated W0–2 monoclonal antibody was added, and the plate was kept at RT for 30 min. Later, TMB was added, and the plate was incubated for 15 min at RT. The absorbance was read at 450 nm using a microplate reader (Victor3, PerkinElmer, Shelton, CT, USA)

Aβ1–42 [3] = target: T2, Aβ1–42; assay: Anti-Aβ1–42 fibrilization, ThT assay; assay type: biochemical; conditions: samples 500 μg/mL; 37 °C 24 h
Procedure: The anti-Aβ1–42 fibrilization activity of the extracts/bioactives was monitored using a ThT assay. The samples were incubated in the presence/absence of Aβ1–42 at 37 °C for 24 h. The samples were incubated with 100 μM ThT at 37 °C for 15 min. The fluorescence was monitored at Ex 450 nm/Ems 490 nm (Synergy-H1 BioTek, Agilent, Santa Clara, CA, USA). For the control, phenol red (50 μM) was used. The Aβ1–42 aggregation inhibition was calculated as follows:Percent Inhibition (%) = [(1 − Fi/Fc) × 100] where Fi and Fc are the fluorescence intensity with and without the inhibitors, respectively.

[4] = tested on: SH-SY5Y neuroblastoma cell line; assay: Cell viability / cytotoxicity assay (WST-8); assay type: cell-based, Human
Procedure: (§1) Human neuroblastoma SH-SY5Y cells (ATCC CRL-2266, Manassas, VA, USA) were maintained in Dulbecco’s modified Eagle’s medium (DMEM, Gibco) supplemented with 10% fetal bovine serum (FBS), 1% kanamycin, and 1% penicillin (Thermo Fisher Scientific, Waltham, MA, USA) at 37 °C with 5% CO2, and a 95% humidified atmosphere in the incubator. The experiments were executed at 80–90% cell confluency.
The cells were seeded (1 × 10^4 cells/well) in 96-well sterile plates and pre-treated with various extract concentrations (1, 10, 30 µg/mL) for 24 h. The extracts and phytocompounds were removed and incubated for 2 h with 10% WST-8 reagent (Roche, Grenzach-Wyhlen, Germany) as described previously. The absorbance was determined at 450 nm in a multi-plate reader (Synergy-H1 BioTek, Agilent, USA). The percent cytotoxicity was calculated as:Cytotoxicity % = (Ac − At)/(Ac) × 100 where Ac = absorbance of the control cells, At = absorbance of the treated cells.
The plot of percent cytotoxicity versus sample concentration was used to calculate the extract concentration that killed 50% of the cells (IC50).

[5] = tested on: H2O2-induced ROS production in SH-SY5Y cells; assay: Intracellular ROS measurement (H2DCFDA); assay type: cell-based, Human; conditions: 12 h pre-treatment, H2O2 100 µM 2 h, H2O2 alone 156.96 ± 5.07%
Procedure: as §1
The cells (1 × 10^4 cells/well) were seeded in a 96-well sterile plate, after which they were pre-treated with the extract for 12 h. […] The fluorescence intensity (Ex 495 nm, Ems 520 nm) was measured by a microplate reader (Synergy-H1 BioTek, Agilent, USA). The ROS was calculated as a percentage of the untreated control cells (100%) in triplicate measurements.

SH-SY5Y cells = assay: Mitochondrial membrane potential (ΔΨm) assay (TMRE); assay type: cell-based, Human; conditions: 12 h pre-treatment, 200 μM H2O2 2 h
Procedure: as §1
The mitochondrial membrane potential was measured using the tetramethylrhodamine, methyl ester (TMRE) staining method. The cells (1 × 10^4 cells/well) were seeded in a 96-well sterile plate; after which, they were pre-treated with the extract for 12 h. The extracts and phytocompounds were removed, followed by a 2 h treatment with H2O2 (200 μM). A 1 μM amount of TMRE was added to the cells and incubated for 1 h at 37 °C. The fluorescence was assessed (Ex 549 nm, Ems 575 nm) using a microplate reader (Synergy-H1 BioTek, Agilent, USA). The ΔΨm was calculated as a percentage of the untreated control cells (100%) in triplicate measurements.

SH-SY5Y cells lysate = assay: Malondialdehyde (MDA) in cell lysate (TBA:TCA); assay type: cell-based, Human; conditions: 24 h pre-treatment, 6 h H2O2 100 μM
Procedure: as §1
The cells (5 × 10^4 cells/well) were seeded in a 6-well sterile plate and incubated for 18–24 h. After stabilization, cells were pre-treated with the extracts and phytocompounds for 24 h before 6 h incubation with H2O2 (100 μM). The culture media was removed, and the cells were washed with cold PBS (1X). The cells were placed on ice and incubated with pre-chilled RIPA buffer for 10 min. Transfer the lysate in microfuge tubes and centrifuge (Labogene 1730R, BMS, Paju-si, Republic of Korea) for 10 min at 20,000× g, 4 °C. The supernatant was collected and stored at −80 °C.
MDA levels were measured using TBA: TCA reagent as described previously. In the reaction, MDA reacts with two molecules of thiobarbituric acid (TBA) to give a pink pigment that absorbs at 532 nm. The standard curve of MDA (1–100 μM) was used to calculate lipid peroxidation in the lysate.

AChE = conditions: cited from earlier work
[6] = tested on: AChE (bovine erythrocyte); set-up: method as in doi:10.1021/jf960398b; conditions: cited from earlier work
rodent models = conditions: cited from earlier work
[7] = cited from earlier work

SMILES: C=C(C)[C@H]1CC=C(C)C(=O)C1 [carvone, D-carvone]
- Ki ([1]; Ki): 1800 µM
- Ki ([1]; Ki (inhibitor constant), AChE): 1800 µM and 1790 µM
- Type of Inhibition of AChE [1]: competitive inhibition
- Type of Inhibition of AChE ([1]; listed as Carvone): Competitive
- Vmax of AChE in presence of inhibitor ([1]; inhibitor 100 μg/mL): 2.900 µmol/min/mg
- Vmax of AChE in presence of inhibitor ([1]; inhibitor 200 μg/mL): 3.141 µmol/min/mg
- IC50 ([1]; mean of three experiments ± SEM): 1840 µM
- IC50 ([1]; molar equivalent of the μg/mL value): 1830 µM
- Aβ oligomerization reduction (relative amount of Aβ oligomers) (Aβ1–42 [2]; 2 h incubation): statistically significant
- Aβ oligomerization reduction (relative amount of Aβ oligomers) (Aβ1–42 [2]; 4 h incubation): statistically significant
- Aβ fibrilization inhibition (ThT) (Aβ1–42 [3]): 42.37 ± 0.76%
- Cytotoxicity (cell viability) in SH-SY5Y [4]: No significant difference
- ROS level (% of untreated cells) ([5]; 1 µg/mL): 122.82 ± 6.63%
- ROS level (% of untreated cells) ([5]; 10 µg/mL): 110.70 ± 4.90%
- ROS level (% of untreated cells) ([5]; 30 µg/mL): 107.11 ± 8.34%
- MMP (% ΔΨm vs untreated cells) (SH-SY5Y cells; 0.1 µg/mL): 71.61 ± 0.70%
- MMP (% ΔΨm vs untreated cells) (SH-SY5Y cells; 1 µg/mL): 80.80 ± 1.20%
- MMP (% ΔΨm vs untreated cells) (SH-SY5Y cells; 10 µg/mL): 85.18 ± 4.96%
- MMP (% ΔΨm vs untreated cells) (SH-SY5Y cells; 30 µg/mL): 87.19 ± 6.26%
- MDA level (SH-SY5Y cells lysate; 0.1 µg/mL): 1.71 µM
- MDA level (SH-SY5Y cells lysate; 1 and 10 µg/mL): ~ 1.33 µM
- AChE inhibition (AChE; at 1 mg/mL): 23.6%
- AChE IC50 (AChE): 835.2 µg/mL
- IC50 (AChE): 5560 µM
- Ki (AChE; ref Grundy et al. 51): 680 µM
- AChE IC50 [6]: 277.9 µg/mL
- IC50 [6]: 1850 µM
- type of AChE inhibition [6]: competitive inhibitor
- LD50 (rodent models): 1640 mg/kg
- BBB permeability [7]: can cross BBB
